Measurements from PubChem BioAssay AID330 (DTP/NCI, 2004).
Several values for one entry are separate records, joined by “and”; a condition that tells them apart may be missing. Equal entries are not always repeated. Toxic doses and inconclusive results are not listed.

Tested on: P388 leukemia ip, CD2F1 mice, survival T/C
Experiment: NCI In Vivo Anticancer Drug Screen. Data for tumor model P388 Leukemia (intraperitoneal) in CD2F1 (CDF1) mice
Conditions: endpoint: median survival time, higher = longer survival
How it was run: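 Mice carrying the transplanted tumor received test compound or vehicle. Survival was recorded in each group, and the value is the treated-group measurement divided by that of the vehicle-treated control group.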

[1] = dose: 50.0 mg/kg/injection, schedule: Q01DX009 (ip), vehicle: Klucel (hydroxypropylcellulose) (HPC)
[2] = dose: 60.0 mg/kg/injection, schedule: Q01DX005 (ip), vehicle: saline with Tween-80
[3] = dose: 120.0 mg/kg/injection, schedule: Q01DX005 (ip), vehicle: saline with Tween-80
[4] = dose: 50.0 mg/kg/injection, schedule: Q01DX005 (ip), vehicle: saline with Tween-80
[5] = dose: 60.0 mg/kg/injection, schedule: Q01DX005 (ip), vehicle: Klucel (hydroxypropylcellulose) (HPC)
[6] = dose: 120.0 mg/kg/injection, schedule: Q01DX005 (ip), vehicle: Klucel (hydroxypropylcellulose) (HPC)
[7] = dose: 240.0 mg/kg/injection, schedule: Q01DX005 (ip), vehicle: Klucel (hydroxypropylcellulose) (HPC)
[8] = dose: 50.0 mg/kg/injection, schedule: Q01DX009 (ip), vehicle: saline with Tween-80
[9] = dose: 100.0 mg/kg/injection, schedule: Q01DX009 (ip), vehicle: saline with Tween-80
[10] = dose: 240.0 mg/kg/injection, schedule: Q01DX005 (ip), vehicle: saline with Tween-80
[11] = dose: 100.0 mg/kg/injection, schedule: Q01DX009 (ip), vehicle: Klucel (hydroxypropylcellulose) (HPC)
[12] = dose: 200.0 mg/kg/injection, schedule: Q01DX009 (ip), vehicle: Klucel (hydroxypropylcellulose) (HPC)
[13] = dose: 50.0 mg/kg/injection, schedule: Q01DX005 (ip), vehicle: saline
[14] = dose: 100.0 mg/kg/injection, schedule: Q01DX005 (ip), vehicle: saline
[15] = dose: 200.0 mg/kg/injection, schedule: Q01DX005 (ip), vehicle: saline
[16] = dose: 100.0 mg/kg/injection, schedule: Q01DX005 (ip), vehicle: saline with Tween-80
[17] = dose: 200.0 mg/kg/injection, schedule: Q01DX005 (ip), vehicle: saline with Tween-80

CNC(=O)OCc1c(COC(=O)NC)c(-c2cc(F)ccc2F)n2c1CCC2
T/C (dose: 12.5 mg/kg/injection, schedule: Q01DX009 (ip), vehicle: distilled water + Tween-80): 151 % of control
T/C (dose: 25.0 mg/kg/injection, schedule: Q01DX009 (ip), vehicle: distilled water + Tween-80): 155 % of control and 156 % of control

CCN(CC)Cc1c(C)nc2ccc(N(C)C)cc2c1Cl
T/C (dose: 12.5 mg/kg/injection, schedule: Q01DX009 (ip), vehicle: Klucel (hydroxypropylcellulose) (HPC)): 115 % of control
T/C (dose: 25.0 mg/kg/injection, schedule: Q01DX009 (ip), vehicle: Klucel (hydroxypropylcellulose) (HPC)): 110 % of control
T/C [1]: 100 % of control and 96 % of control

COc1ccc(/C=C/C(=O)C(C)(C)CN(C)CCN(C)C)cc1
T/C [2]: 100 % of control
T/C [3]: 109 % of control

Cc1cc2ccccc2c[n+]1CCCCCCCCI
T/C (dose: 6.25 mg/kg/injection, schedule: Q01DX005 (ip), vehicle: saline with Tween-80): 110 % of control
T/C (dose: 12.5 mg/kg/injection, schedule: Q01DX005 (ip), vehicle: saline with Tween-80): 115 % of control
T/C (dose: 25.0 mg/kg/injection, schedule: Q01DX005 (ip), vehicle: saline with Tween-80): 110 % of control
T/C [4]: 108 % of control

COc1ccc(C2OC(=N)C(=S)N2C)c(OC)c1 (configuration not stated)
T/C [5]: 102 % of control
T/C [6]: 104 % of control
T/C [7]: 101 % of control

[Br][Rh][Br].[NH-]c1nc2c(ccc3ccccc32)s1.[NH-]c1nc2c(ccc3ccccc32)s1.[NH-]c1nc2c(ccc3ccccc32)s1.[NH-]c1nc2c(ccc3ccccc32)s1
T/C (dose: 100.0 mg/kg/injection, schedule: Q04DX003 (ip), vehicle: saline): 109 % of control
T/C (dose: 200.0 mg/kg/injection, schedule: Q04DX003 (ip), vehicle: saline): 103 % of control
T/C (dose: 400.0 mg/kg/injection, schedule: Q04DX003 (ip), vehicle: saline): 98 % of control

C=Cn1ccnc1C(O)(c1ccc(Cl)cc1)c1ccc(Cl)cc1
T/C [8]: 92 % of control and 94 % of control
T/C [9]: 100 % of control and 94 % of control
T/C (dose: 200.0 mg/kg/injection, schedule: Q01DX009 (ip), vehicle: saline with Tween-80): 94 % of control
T/C (dose: 400.0 mg/kg/injection, schedule: Q01DX009 (ip), vehicle: saline with Tween-80): 95 % of control and 98 % of control

COc1ccc(CC2C(=O)NC(C)C(=O)N(C)C3Cc4ccc(cc4)Oc4cc(ccc4OC)CC(C(=O)NC(C)C(=O)NC(C)C(=O)N2C)N(C)C3=O)cc1 (configuration not stated)
T/C (dose: 0.5 mg/kg/injection, schedule: Q01DX009 (ip), vehicle: none): 161 % of control
T/C (dose: 1.0 mg/kg/injection, schedule: Q01DX009 (ip), vehicle: none): 152 % of control
T/C (dose: 2.0 mg/kg/injection, schedule: Q01DX009 (ip), vehicle: none): 190 % of control

CCOC(=O)c1ccc(Nc2nc(NNC(=O)c3ccncc3)nc(Nc3ccc(C)cc3)n2)cc1
T/C [2]: 99 % of control
T/C [3]: 99 % of control
T/C [10]: 99 % of control

CCC(=O)c1ccc(NC(=O)Nc2ncccn2)cc1
T/C [5]: 86 % of control
T/C [6]: 89 % of control
T/C [7]: 95 % of control

Nc1ccc2c(SCCCCCCSc3c4ccccc4nc4cc(N)ccc34)c3ccccc3nc2c1
T/C [2]: 100 % of control
T/C [3]: 101 % of control
T/C [10]: 104 % of control

CCCCCCCCCCCCCCCCSc1ccc(N=Cc2ccc(N(CC)CC#N)cc2)cc1
T/C [8]: 97 % of control
T/C [9]: 94 % of control

Cc1ccc(NCCC2CCCN3CCCCC23)c2c(=O)c3ccccc3sc12 (configuration not stated)
T/C (dose: 12.5 mg/kg/injection, schedule: Q01DX005 (ip), vehicle: distilled water + Tween-80): 100 % of control
T/C (dose: 25.0 mg/kg/injection, schedule: Q01DX005 (ip), vehicle: distilled water + Tween-80): 91 % of control

CC(C)(C(=O)O)C(C)(C)C(=O)O
T/C (dose: 1.56 mg/kg/injection, schedule: Q01DX001 (ip), vehicle: saline): 102 % of control
T/C (dose: 3.12 mg/kg/injection, schedule: Q01DX001 (ip), vehicle: saline): 101 % of control

COC(=O)NCP(=S)(CNC(=O)OC)CNC(=O)OC
T/C [1]: 105 % of control
T/C [11]: 96 % of control
T/C [12]: 95 % of control

C1CCC2CC3CCCCN3COC2CC1 (configuration not stated)
T/C [13]: 116 % of control
T/C [14]: 118 % of control

Cc1ccccc1C(=O)c1cnc(C)n1Cc1ccccc1
T/C [2]: 96 % of control
T/C [3]: 98 % of control
T/C [10]: 98 % of control

CCN(CC)Cc1cc(Nc2c3ccc([N+](=O)[O-])cc3nc3ccc(OC)cc23)ccc1O
T/C [13]: 99 % of control
T/C [14]: 103 % of control
T/C [15]: 101 % of control

COC1CCC(NS(=O)(=O)c2ccc(N)cc2)[N-]N1.[Ag+] (configuration not stated)
T/C (dose: 12.5 mg/kg/injection, schedule: Q01DX009 (ip), vehicle: saline): 93 % of control
T/C (dose: 25.0 mg/kg/injection, schedule: Q01DX009 (ip), vehicle: saline): 101 % of control
T/C (dose: 50.0 mg/kg/injection, schedule: Q01DX009 (ip), vehicle: saline): 98 % of control and 109 % of control

CSCCC(N)C(=O)O (configuration not stated)
T/C (dose: 25.0 mg/kg/injection, schedule: Q01DX005 (ip), vehicle: saline): 102 % of control
T/C (dose: 25.0 mg/kg/injection, schedule: Q01DX009 (ip), vehicle: other): 107 % of control
T/C (dose: 25.0 mg/kg/injection, schedule: Q01DX009 (ip), vehicle: saline with Tween-80): 103 % of control
T/C (dose: 37.5 mg/kg/injection, schedule: Q01DX009 (ip), vehicle: Klucel (hydroxypropylcellulose) (HPC)): 122 % of control
T/C (dose: 40.0 mg/kg/injection, schedule: Q01DX009 (ip), vehicle: saline with Tween-80): 105 % of control
T/C [13]: 99 % of control
T/C (dose: 50.0 mg/kg/injection, schedule: Q01DX009 (ip), vehicle: other): 100 % of control and 107 % of control
T/C [8]: 107 % of control
T/C (dose: 75.0 mg/kg/injection, schedule: Q01DX009 (ip), vehicle: Klucel (hydroxypropylcellulose) (HPC)): 103 % of control
T/C (dose: 75.0 mg/kg/injection, schedule: Q01DX009 (ip), vehicle: other): 98 % of control and 94 % of control
T/C (dose: 80.0 mg/kg/injection, schedule: Q01DX009 (ip), vehicle: saline with Tween-80): 100 % of control and 114 % of control
T/C [14]: 107 % of control
T/C (dose: 100.0 mg/kg/injection, schedule: Q01DX009 (ip), vehicle: other): 100 % of control and 107 % of control
T/C [9]: 108 % of control
T/C (dose: 100.0 mg/kg/injection, schedule: Q01DX009 (ip), vehicle: saline): 102 % of control
T/C (dose: 150.0 mg/kg/injection, schedule: Q01DX009 (ip), vehicle: other): 103 % of control and 106 % of control
T/C (dose: 160.0 mg/kg/injection, schedule: Q01DX009 (ip), vehicle: saline with Tween-80): 99 % of control and 102 % of control
T/C [15]: 101 % of control
T/C (dose: 200.0 mg/kg/injection, schedule: Q01DX009 (ip), vehicle: other): 110 % of control
T/C (dose: 200.0 mg/kg/injection, schedule: Q01DX009 (ip), vehicle: saline): 112 % of control
T/C (dose: 225.0 mg/kg/injection, schedule: Q01DX009 (ip), vehicle: other): 109 % of control
T/C (dose: 320.0 mg/kg/injection, schedule: Q01DX009 (ip), vehicle: saline with Tween-80): 106 % of control and 97 % of control
T/C (dose: 400.0 mg/kg/injection, schedule: Q01DX005 (ip), vehicle: saline): 103 % of control
T/C (dose: 400.0 mg/kg/injection, schedule: Q01DX009 (ip), vehicle: saline): 108 % of control
T/C (dose: 800.0 mg/kg/injection, schedule: Q01DX009 (ip), vehicle: saline): 108 % of control

CC(CN(C)C)C(=O)/C=C/c1ccc(Cl)cc1 (configuration not stated)
T/C (dose: 60.0 mg/kg/injection, schedule: Q01DX005 (ip), vehicle: saline): 118 % of control
T/C (dose: 120.0 mg/kg/injection, schedule: Q01DX005 (ip), vehicle: saline): 122 % of control

Nc1cc(=O)cc2nn[nH]n12
T/C [1]: 102 % of control
T/C [11]: 108 % of control
T/C [12]: 101 % of control

CC(=O)c1c(O)cc(C)n(Cc2ccccc2)c1=O
T/C [4]: 99 % of control
T/C [16]: 100 % of control
T/C [17]: 99 % of control

NCC(=O)NC(CCCN=C(N)N)C(=O)O (configuration not stated)
T/C [13]: 96 % of control
T/C [14]: 99 % of control
T/C [15]: 99 % of control

CCCC1OCC(O)C(C(O)C(=O)CN(Cc2ccccc2)Cc2ccccc2)O1 (configuration not stated)
T/C [4]: 100 % of control
T/C [16]: 98 % of control
T/C [17]: 98 % of control
